Patent publication US9926282B2, “Phthalazinones and isoquinolinones as rock inhibitors” (BRISTOL-MYERS SQUIBB COMPANY, priority 2013, dated 2018)
pIC50: −log10 of the molar value. Counter-ions that a name gives are not always drawn.

How the values were obtained:
ROCK1 = ROCK1 (Homo sapiens (Human), UniProt Q13464); assay: ROCK assay (LABCHIP peptide phosphorylation), ROCK1; format: biochemical; conditions: 5 μM ATP, 1.5 μM peptide substrate; read-out: ROCK1 IC50
ROCK2 = ROCK2 (Homo sapiens (Human), UniProt O75116); assay: ROCK assay (LABCHIP peptide phosphorylation), ROCK2; format: biochemical; conditions: 5 μM ATP, 1.5 μM peptide substrate
Chain of ROCK2 (O75116 whole entry, species assumed): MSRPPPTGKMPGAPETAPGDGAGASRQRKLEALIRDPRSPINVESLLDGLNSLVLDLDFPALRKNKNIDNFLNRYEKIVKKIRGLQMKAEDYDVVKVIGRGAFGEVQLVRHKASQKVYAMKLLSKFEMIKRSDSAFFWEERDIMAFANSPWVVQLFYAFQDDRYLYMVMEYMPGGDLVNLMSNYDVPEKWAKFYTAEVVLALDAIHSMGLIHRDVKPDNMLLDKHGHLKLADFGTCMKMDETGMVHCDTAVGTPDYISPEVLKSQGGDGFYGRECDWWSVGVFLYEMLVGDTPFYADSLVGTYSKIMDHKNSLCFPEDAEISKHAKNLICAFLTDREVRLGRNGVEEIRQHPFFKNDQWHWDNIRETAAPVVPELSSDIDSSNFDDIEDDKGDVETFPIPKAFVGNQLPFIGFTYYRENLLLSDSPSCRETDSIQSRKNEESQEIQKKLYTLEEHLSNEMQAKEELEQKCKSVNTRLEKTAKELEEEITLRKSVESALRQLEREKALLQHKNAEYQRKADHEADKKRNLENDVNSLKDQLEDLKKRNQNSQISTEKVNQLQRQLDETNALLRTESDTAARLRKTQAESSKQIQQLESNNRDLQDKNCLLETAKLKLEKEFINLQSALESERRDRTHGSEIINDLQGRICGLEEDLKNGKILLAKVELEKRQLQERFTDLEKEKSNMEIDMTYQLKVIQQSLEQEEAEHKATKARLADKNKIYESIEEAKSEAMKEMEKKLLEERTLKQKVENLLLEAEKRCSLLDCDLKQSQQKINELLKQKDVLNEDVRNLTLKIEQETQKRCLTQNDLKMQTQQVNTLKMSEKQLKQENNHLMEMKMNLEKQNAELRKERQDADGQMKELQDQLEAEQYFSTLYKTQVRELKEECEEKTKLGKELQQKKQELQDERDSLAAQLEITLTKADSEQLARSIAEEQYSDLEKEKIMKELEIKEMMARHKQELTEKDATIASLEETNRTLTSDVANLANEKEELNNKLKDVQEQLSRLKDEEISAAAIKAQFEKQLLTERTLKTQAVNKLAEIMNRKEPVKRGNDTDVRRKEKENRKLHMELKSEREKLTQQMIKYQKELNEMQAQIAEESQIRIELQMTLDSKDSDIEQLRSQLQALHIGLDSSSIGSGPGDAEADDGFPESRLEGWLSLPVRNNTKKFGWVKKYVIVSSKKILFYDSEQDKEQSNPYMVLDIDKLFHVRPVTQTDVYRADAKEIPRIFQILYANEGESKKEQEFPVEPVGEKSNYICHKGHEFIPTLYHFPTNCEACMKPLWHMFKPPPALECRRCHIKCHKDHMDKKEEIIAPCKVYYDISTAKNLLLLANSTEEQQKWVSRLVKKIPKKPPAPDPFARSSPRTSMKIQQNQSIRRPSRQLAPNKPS

Chain of ROCK1 (Q13464 whole entry, species assumed): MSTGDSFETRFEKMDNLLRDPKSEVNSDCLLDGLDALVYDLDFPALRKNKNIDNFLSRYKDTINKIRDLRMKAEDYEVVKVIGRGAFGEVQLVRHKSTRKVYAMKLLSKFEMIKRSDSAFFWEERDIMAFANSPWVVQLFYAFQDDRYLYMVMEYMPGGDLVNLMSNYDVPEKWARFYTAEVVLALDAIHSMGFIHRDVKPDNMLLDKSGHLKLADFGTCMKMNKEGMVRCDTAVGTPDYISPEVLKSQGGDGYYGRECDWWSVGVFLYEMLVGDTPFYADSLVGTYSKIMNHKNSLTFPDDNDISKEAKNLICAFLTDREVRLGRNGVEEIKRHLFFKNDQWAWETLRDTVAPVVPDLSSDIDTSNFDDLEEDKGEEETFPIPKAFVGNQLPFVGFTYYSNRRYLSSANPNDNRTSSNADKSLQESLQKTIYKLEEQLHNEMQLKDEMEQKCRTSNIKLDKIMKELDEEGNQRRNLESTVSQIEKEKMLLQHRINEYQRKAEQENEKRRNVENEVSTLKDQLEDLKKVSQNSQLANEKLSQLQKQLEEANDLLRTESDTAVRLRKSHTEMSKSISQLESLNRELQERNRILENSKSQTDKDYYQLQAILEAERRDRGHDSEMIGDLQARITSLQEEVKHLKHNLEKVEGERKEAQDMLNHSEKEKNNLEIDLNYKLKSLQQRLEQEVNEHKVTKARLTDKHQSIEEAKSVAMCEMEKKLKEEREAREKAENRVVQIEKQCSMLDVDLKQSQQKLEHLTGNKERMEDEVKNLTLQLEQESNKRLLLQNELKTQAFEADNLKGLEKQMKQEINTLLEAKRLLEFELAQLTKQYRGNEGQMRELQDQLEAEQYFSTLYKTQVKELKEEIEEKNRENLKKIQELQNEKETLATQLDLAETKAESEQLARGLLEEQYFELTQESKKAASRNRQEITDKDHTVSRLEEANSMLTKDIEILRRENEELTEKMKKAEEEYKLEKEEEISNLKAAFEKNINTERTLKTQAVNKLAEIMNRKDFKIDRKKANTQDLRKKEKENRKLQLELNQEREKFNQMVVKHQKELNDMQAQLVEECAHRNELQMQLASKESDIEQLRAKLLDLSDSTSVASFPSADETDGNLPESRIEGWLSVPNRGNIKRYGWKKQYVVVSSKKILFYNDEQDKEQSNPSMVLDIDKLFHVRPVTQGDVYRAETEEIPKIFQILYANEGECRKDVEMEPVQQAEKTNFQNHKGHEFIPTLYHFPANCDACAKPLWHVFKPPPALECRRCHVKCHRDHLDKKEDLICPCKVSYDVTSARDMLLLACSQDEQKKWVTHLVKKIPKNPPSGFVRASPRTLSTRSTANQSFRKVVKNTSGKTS

Compound	pIC50 (ROCK1)	pIC50 (ROCK2)
O=C(Nc1ccc(-c2n[nH]c(=O)c3ccccc23)cc1)C1CC(=O)N(c2ccccc2)C1 (stereo not shown) [Example 217, 5-oxo-N-[4-(4-oxo-3,4-dihydrophthalazin-1-yl)phenyl]-1-phenylpyrrolidine-3-carboxamide]	4.30 to 6.00	6.00 to 7.00
Cc1cc(CC(=O)N2CCc3ccccc32)ccc1-c1c[nH]c(=O)c2ccccc12 [Example 264, 4-(4-(2-(Indolin-1-yl)-2-oxoethyl)-2-methylphenyl)isoquinolin-1(2H)-one]	7.00 to 10.00	7.00 to 10.00
CCCc1cc(C(=O)Nc2ccc(-c3n[nH]c(=O)c4ccccc34)cc2)nn1C [Example 229, 1-methyl-N-[4-(4-oxo-3,4-dihydrophthalazin-1-yl)phenyl]-5-propyl-1H-pyrazole-3-carboxamide]	7.00 to 10.00	7.00 to 10.00
O=C(Nc1ccc(-c2n[nH]c(=O)c3ccccc23)cc1)C1CCN(Cc2ccccc2)CC1 [Example 56, 1-benzyl-N-[4-(4-oxo-3,4-dihydrophthalazin-1-yl)phenyl]piperidine-4-carboxamide]	4.30 to 6.00	4.30 to 6.00
Cc1cc(NC(=O)c2nn(CC3(C)COC3)c3ccccc23)ccc1-c1n[nH]c(=O)c2ccccc12 [Example 314, N-[3-methyl-4-(4-oxo-3,4-dihydrophthalazin-1-yl)phenyl]-1-[(3-methyloxetan-3-yl)methyl]-1H-indazole-3-carboxamide]	7.00 to 10.00	7.00 to 10.00
O=C(Nc1ccc(-c2n[nH]c(=O)c3ccccc23)cc1)C1CCN(c2ccc([N+](=O)[O-])cc2)CC1 [Example 54, 1-(4-nitrophenyl)-N-[4-(4-oxo-3,4-dihydrophthalazin-1-yl)phenyl]piperidine-4-carboxamide]	6.00 to 7.00	7.00 to 10.00
O=C(Nc1ccc(-c2n[nH]c(=O)c3ccccc23)c(CO)c1)c1nn(CC2CCOC2)c2ccc(F)cc12 (stereo not shown) [Example 366, 5-Fluoro-N-(3-(hydroxymethyl)-4-(4-oxo-3,4-dihydrophthalazin-1-yl)phenyl)-1-((tetrahydrofuran-3-yl)methyl)-1H-indazole-3-carboxamide]	6.00 to 7.00	7.00 to 10.00
CN(C)c1cccc(C(=O)Nc2ccc(-c3n[nH]c(=O)c4ccccc34)cc2)c1 [Example 66, 3-(dimethylamino)-N-[4-(4-oxo-3,4-dihydrophthalazin-1-yl)phenyl]benzamide]	7.00 to 10.00	7.00 to 10.00
O=C(c1ccc2c(c1)N(C(=O)Cc1ccc(-c3n[nH]c(=O)c4ccccc34)cc1)CC2)N1CCC(O)CC1 [Example 295, 4-(4-{2-[6-(4-hydroxypiperidine-1-carbonyl)-2,3-dihydro-1H-indol-1-yl]-2-oxoethyl}phenyl)-1,2-dihydrophthalazin-1-one]	6.00 to 7.00	7.00 to 10.00
Cc1cc(NC(=O)c2nn(CC3CNC3)c3ccccc23)ccc1-c1n[nH]c(=O)c2ccccc12 [Example 326, 1-(Azetidin-3-ylmethyl)-N-(3-methyl-4-(4-oxo-3,4-dihydrophthalazin-1-yl)phenyl)-1H-indazole-3-carboxamide, TFA]	7.00 to 10.00	6.00 to 7.00
O=C(Cc1ccc(-c2n[nH]c(=O)c3ccccc23)cc1)Nc1nc2ccccc2o1 [Example 10, N-(1,3-benzoxazol-2-yl)-2-[4-(4-oxo-3,4-dihydrophthalazin-1-yl)phenyl]acetamide]	6.00 to 7.00	7.00 to 10.00
Cn1c(C(=O)Nc2ccc(-c3c[nH]c(=O)c4ccccc34)cc2)cc2ccccc21 [Example 248, 1-Methyl-N-(4-(1-oxo-1,2-dihydroisoquinolin-4-yl)phenyl)-1H-indole-2-carboxamide]	6.00 to 7.00	7.00 to 10.00
O=C(COc1ccc2c(c1)N(C(=O)Cc1ccc(-c3n[nH]c(=O)c4ccccc34)cc1)CC2)N1CCOCC1 [Example 297, 4-(4-(2-(6-(2-Morpholino-2-oxoethoxy)indolin-1-yl)-2-oxoethyl)phenyl)phthalazin-1(2H)-one]	7.00 to 10.00	7.00 to 10.00
O=C(Cc1ccc(-c2n[nH]c(=O)c3ccccc23)cc1)N[C@H]1CCc2ccccc21 [Example 82, (S)—N-(2,3-Dihydro-1H-inden-1-yl)-2-(4-(4-oxo-3,4-dihydrophthalazin-1-yl)phenyl)acetamide]	4.30 to 6.00	6.00 to 7.00
COc1ccc2c(c1)N(C(=O)Nc1ccc(-c3c[nH]c(=O)c4ccc(OC)cc34)cc1)CC2 [Example 268, 6-Methoxy-N-(4-(6-methoxy-1-oxo-1,2-dihydroisoquinolin-4-yl)phenyl)indoline-1-carboxamide]	7.00 to 10.00	7.00 to 10.00
Cc1nnc(NC(=O)Cc2ccc(-c3n[nH]c(=O)c4ccccc34)cc2)s1 [Example 31, N-(5-methyl-1,3,4-thiadiazol-2-yl)-2-[4-(4-oxo-3,4-dihydrophthalazin-1-yl)phenyl]acetamide]	4.30 to 6.00	7.00 to 10.00

Compound	pIC50 (ROCK1)	pIC50 (ROCK2)
O=C(Nc1ccc(-c2n[nH]c(=O)c3ccccc23)c(Cl)c1)c1nn(CC2CCOCC2)c2ccccc12 [Example 318, N-[3-chloro-4-(4-oxo-3,4-dihydrophthalazin-1-yl)phenyl]-1-(oxan-4-ylmethyl)-1H-indazole-3-carboxamide]	7.00 to 10.00	7.00 to 10.00
O=C(Nc1ccc(-c2n[nH]c(=O)c3ccccc23)c(CO)c1)c1cnn2ccccc12 [Example 362, N-(3-(Hydroxymethyl)-4-(4-oxo-3,4-dihydrophthalazin-1-yl)phenyl)pyrazolo[1,5-a]pyridine-3-carboxamide]	4.30 to 6.00	7.00 to 10.00
O=C(Nc1ccc(-c2n[nH]c(=O)c3ccccc23)c(CO)c1)c1nn(CC2CCOC2)c2ccccc12 (stereo not shown) [Example 355, N-(3-(Hydroxymethyl)-4-(4-oxo-3,4-dihydrophthalazin-1-yl)phenyl)-1-((tetrahydrofuran-3-yl)methyl)-1H-indazole-3-carboxamide]	4.30 to 6.00	7.00 to 10.00
O=C(c1ccc2c(c1)N(C(=O)Cc1ccc(-c3n[nH]c(=O)c4ccccc34)cc1)CC2)N1CCOCC1 [Example 293, 4-(4-{2-[6-(morpholine-4-carbonyl)-2,3-dihydro-1H-indol-1-yl]-2-oxoethyl}phenyl)-1,2-dihydrophthalazin-1-one]	6.00 to 7.00	7.00 to 10.00
O=C(O)CCn1nc(C(=O)Nc2ccc(-c3n[nH]c(=O)c4ccccc34)cc2)c2ccccc21 [Example 331, 3-(3-((4-(4-Pxo-3,4-dihydrophthalazin-1-yl)phenyl)carbamoyl)-1H-indazol-1-yl)propanoic acid]	6.00 to 7.00	7.00 to 10.00
Cc1nc2ccccn2c1C(=O)Nc1ccc(-c2n[nH]c(=O)c3ccccc23)cc1 [Example 95, 2-methyl-N-[4-(4-oxo-3,4-dihydrophthalazin-1-yl)phenyl]imidazo[1,2-a]pyridine-3-carboxamide]	7.00 to 10.00	7.00 to 10.00
CN(C)C(=O)c1ccc2c(c1)N(C(=O)Cc1ccc(-c3n[nH]c(=O)c4ccccc34)cc1)CC2 [Example 291, N,N-dimethyl-1-{2-[4-(4-oxo-3,4-dihydrophthalazin-1-yl)phenyl]acetyl}-2,3-dihydro-1H-indole-6-carboxamide]	6.00 to 7.00	7.00 to 10.00
O=C(Cc1ccc(-c2n[nH]c(=O)c3ccccc23)cc1)N1CCc2ccccc21 [Example 23, 4-{4-[2-(2,3-dihydro-1H-indol-1-yl)-2-oxoethyl]phenyl}-1,2-dihydrophthalazin-1-one]	6.00 to 7.00	7.00 to 10.00
O=C(Cc1ccc(-c2n[nH]c(=O)c3ccccc23)cc1)N1CCc2ccc(OCC3COC3)cc21 [Example 284, 4-(4-{2-[6-(oxetan-3-ylmethoxy)-2,3-dihydro-1H-indol-1-yl]-2-oxoethyl}phenyl)-1,2-dihydrophthalazin-1-one]	7.00 to 10.00	7.00 to 10.00
O=C(Nc1ccc(-c2n[nH]c(=O)c3ccccc23)cc1)c1n[nH]c2c1C(=O)CCC2 [Example 109, 4-oxo-N-[4-(4-oxo-3,4-dihydrophthalazin-1-yl)phenyl]-4,5,6,7-tetrahydro-1H-indazole-3-carboxamide]	7.00 to 10.00	7.00 to 10.00
O=C(Nc1ccc(-c2n[nH]c(=O)c3ccccc23)cc1)c1nn(CC2CCN(C(=O)OCC(F)(F)F)CC2)c2ccccc12 [Example 351, 2,2,2-Trifluoroethyl 4-[(3-{[4-(4-oxo-3,4-dihydrophthalazin-1-yl)phenyl]carbamoyl}-1H-indazol-1-yl)methyl]piperidine-1-carboxylate]	7.00 to 10.00	7.00 to 10.00
Cn1nc(C(=O)Nc2ccc(-c3n[nH]c(=O)c4ccccc34)cc2)cc1C12CC3CC(CC(C3)C1)C2 [Example 201, 5-(adamantan-1-yl)-1-methyl-N-[4-(4-oxo-3,4-dihydrophthalazin-1-yl)phenyl]-1H-pyrazole-3-carboxamide]	7.00 to 10.00	7.00 to 10.00
CC(C)(O)CNC(=O)Cn1nc(C(=O)Nc2ccc(-c3n[nH]c(=O)c4ccccc34)cc2)c2ccccc21 [Example 334, 1-(2-((2-Hydroxy-2-methylpropyl)amino)-2-oxoethyl)-N-(4-(4-oxo-3,4-dihydrophthalazin-1-yl)phenyl)-1H-indazole-3-carboxamide]	7.00 to 10.00	7.00 to 10.00
CN1CC[C@H](Oc2ccc3c(c2)N(C(=O)Cc2ccc(-c4n[nH]c(=O)c5ccccc45)cc2)CC3)C1 [Example 281, 4-{4-[2-(6-{[(3S)-1-methylpyrrolidin-3-yl]oxy}-2,3-dihydro-1H-indol-1-yl)-2-oxoethyl]phenyl}-1,2-dihydrophthalazin-1-one]	6.00 to 7.00	7.00 to 10.00
CC(C)(C)n1cc(C(=O)Nc2ccc(-c3n[nH]c(=O)c4ccccc34)cc2)cn1 [Example 381, 1-(tert-Butyl)-N-(4-(4-oxo-3,4-dihydrophthalazin-1-yl)phenyl)-1H-pyrazole-4-carboxamide]	7.00 to 10.00	7.00 to 10.00
O=C(Cc1ccc(-c2n[nH]c(=O)c3ccccc23)cc1)N[C@@H]1CCc2ccccc21 [Example 81, (R)—N-(2,3-Dihydro-1H-inden-1-yl)-2-(4-(4-oxo-3,4-dihydrophthalazin-1-yl)phenyl)acetamide]	4.30 to 6.00	6.00 to 7.00
